# From patent US5935829A, “Mutation assays involving blood cells that metabolize toxic substances” (priority 1992, dated 1999)
# Read-outs that look alike come from different tables or passages of the source.
# Experiments:
# [1] = system: AHH activity of 6-TG resistant AHH-1 clones; test: AHH activity induced by BaP in AHH-1 cells resistant to 6-TG; assay type: cell-based, human; conditions: 10 μM BaP, 24 hours
# Protocol: 3-hydroxy BaP per 10^6 cells per minute. The quantity of 3-hydroxy BaP was measured by fluorescent intensity activated by a light wavelength of 396 nm and measured at 522 nm using a spectrofluorimeter (Farrand Model Mk-1, Valhalla, N.Y.). This could be induced to about 0.3 pmole of 3-hydroxy BaP per 10^6 cells per minute.
# 6-TG resistant clones were characterized for AHH activity by measuring the rate of production of 3-OH benzopyrene, a fluorescent metabolite of BaP which is created by AHH activity. […].
# [2] = in vitro; assay type: cell-based, human; conditions: human, g6-a5 cells, G6-A5 clone, read-out: Relative Survival
# From the text: (§1) Following the benzo(ghi)perylene selection and after plating in microtitre plates, colonies were isolated and analyzed for MFO activity and PE. […] Several of these subclones were used to detect the mutagenic activity of benzo(a)pyrene, a chemical known to require oxidative metabolism for mutagenicity.
# [3] = system: G6-A5 cells; test: in vitro; assay type: cell-based, human; conditions: several subclones, exposed directly
# From the text: as §1
# [4] = system: AHH activity of AHH-1 cells; assay type: cell-based, human
# Protocol: The quantity of 3-hydroxy BaP was measured by fluorescent intensity activated by a light wavelength of 396 nm and measured at 522 nm using a spectrofluorimeter (Farrand Model Mk-1, Valhalla, N.Y.).
# After growth of the cells in culture medium with gentamycin and kanamycin, the cells were plated in microtiter plates at a density of about 0.2 cells per well. Colonies were isolated and characterized for BaP-induced growth inhibition. A total of 47 colonies were isolated and contacted with 40 uM BaP. In its normal state, BaP is not highly cytotoxic or mutagenic; however, if metabolized by oxidative activity into one or more epoxides or phenols, the metabolites tend to be toxic and mutagenic.
# 6-TG resistant clones were characterized for AHH activity by measuring the rate of production of 3-OH benzopyrene, a fluorescent metabolite of BaP which is created by AHH activity.
# [5] = system: AHH-1 cells
# [6] = in vitro; conditions: human, ahh-1 cells, RELATIVE SURVIVAL; for viability at 48 h, 10 µM: 10 μM × 48 hours; for viability at 48 h, 20 µM: 20 μM × 48 hours
# [7] = system: human cells; conditions: literature ref. 15; cited from earlier work
# [8] = 0.3 μM × 24 hours, induction BP
smiles,measurement,setting,value
"c1ccc2c(c1)cc1ccc3cccc4ccc2c1c34 [BaP, benzo(a)pyrene]",AHH Activity Induced by B(α)P,[1]; clone BP-1,1.64 pmole 3OHBP/10^6 cells/minute
same,AHH Activity Induced by B(α)P,[1]; clone BP-2,2.36 pmole 3OHBP/10^6 cells/minute
same,AHH Activity Induced by B(α)P,[1]; clone BP-3,1.88 pmole 3OHBP/10^6 cells/minute
same,AHH Activity Induced by B(α)P,[1]; clone BP-4,2.76 pmole 3OHBP/10^6 cells/minute
same,AHH Activity Induced by B(α)P,[1]; clone BP-5,0.72 pmole 3OHBP/10^6 cells/minute
same,AHH Activity Induced by B(α)P,[1]; clone BP-6,1.88 pmole 3OHBP/10^6 cells/minute
same,AHH Activity Induced by B(α)P,[1]; clone BP-7,1.84 pmole 3OHBP/10^6 cells/minute
same,AHH Activity Induced by B(α)P,[1]; mean TG^R clones,1.87 pmole 3OHBP/10^6 cells/minute
same,viability at 24 h,[2]; 0.1 μg/ml,37%
same,viability at 24 h,"[2]; 0.2 μg/ml, 24 hour treatment",41%
same,mutation of G6-series subclones to a statistically significant degree,[3],mutated to a statistically significant degree
same,AHH Activity Induced by B(α)P,[4],2.04 pmole 3OHBP/10^6 cells/minute
same,induction of AHH activity,[4],inducers
same,"MUTANT FRACTION × 10^6, MEAN ± STD.DEV.",[5]; [8],3.4 ± 0.5 × 10^6
same,"MUTANT FRACTION × 10^6, MEAN ± STD.DEV.","[5]; 1 μM × 24 hours, induction BP",4.9 ± 0.9 × 10^6
same,"MUTANT FRACTION × 10^6, MEAN ± STD.DEV.","[5]; 3 μM × 24 hours, induction BP",6.1 ± 1 × 10^6
same,"MUTANT FRACTION × 10^6, MEAN ± STD.DEV.","[5]; 10 μM × 24 hours, induction BP",12.7 ± 1.5 × 10^6
same,"MUTANT FRACTION × 10^6, MEAN ± STD.DEV.","[5]; 30 μM × 24 hours, induction BP",18.2 ± 2.1 × 10^6
same,"viability at 24 h, 0.3 µM",[6]; [8],87%
same,"viability at 24 h, 1 µM","[6]; 1 μM × 24 hours, induction BP",102%
same,"viability at 24 h, 3 µM","[6]; 3 μM × 24 hours, induction BP",74%
same,"viability at 24 h, 10 µM","[6]; 10 μM × 24 hours, induction BP",82%
same,"viability at 24 h, 30 µM","[6]; 30 μM × 24 hours, induction BP",75%
"c1cc2cccc3c4cccc5cccc(c(c1)c23)c54 [Per, perylene]",mutagenicity for human cells,[7],not a mutagen for human cells
same,"MUTANT FRACTION × 10^6, MEAN ± STD.DEV.","[5]; 10 μM × 48 hours, induction BNF",2.7 ± 0.6 × 10^6
same,"MUTANT FRACTION × 10^6, MEAN ± STD.DEV.","[5]; 10 μM × 48 hours, induction none",3.2 ± 0.75 × 10^6
same,"MUTANT FRACTION × 10^6, MEAN ± STD.DEV.","[5]; 20 μM × 48 hours, induction BNF",2.7 ± 0.6 × 10^6
same,"MUTANT FRACTION × 10^6, MEAN ± STD.DEV.","[5]; 20 μM × 48 hours, induction none",1.9 ± 0.5 × 10^6
same,"viability at 48 h, 10 µM",[6]; induction BNF,89%
same,"viability at 48 h, 10 µM",[6]; induction none,93%
same,"viability at 48 h, 20 µM",[6]; induction BNF,89%
same,"viability at 48 h, 20 µM",[6]; induction none,95%
